Source: ChEMBL document CHEMBL1201862, “PubChem BioAssay data set” (2004)
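Values below derive from 48-hour exposures of cells grown in 96-well plates, with endpoints linearly interpolated between the two concentrations bracketing the appropriate inhibition level. GI50 is the concentration that inhibits growth by half.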 Activity calls are given as the source filed them. No stated cut-off is given here; in the data, active = GI50 up to about 1.1 µM and inactive = higher.

Columns and labels:
Assay in all cases: NCI-60 cell line screen, 48 h
[1] = tested on: Hs-578T
[2] = tested on: ACHN
[3] = tested on: SK-OV-3
[4] = tested on: MOLT-4
[5] = tested on: HT-29
[6] = tested on: SR
[7] = tested on: SF-268
[8] = tested on: KM12
[9] = tested on: NCI-H23
[10] = tested on: SF-539
[11] = tested on: SN12C
[12] = tested on: HL-60
[13] = tested on: NCI/ADR-RES
[14] = tested on: HOP-92
[15] = tested on: NCI-H226
[16] = tested on: OVCAR-3
[17] = tested on: HOP-62
[18] = tested on: RPMI-8226
[19] = tested on: A498

Row | Compound | GI50 [1] | GI50 [2] | GI50 [3] | GI50 [4] | GI50 [5] | GI50 [6] | GI50 [7] | GI50 [8] | GI50 [9] | GI50 [10] | GI50 [11] | GI50 [12] | GI50 [13] | GI50 [14] | GI50 [15] | GI50 [16] | GI50 [17] | GI50 [18] | GI50 [19]
1 | O=C1CCC2(c3ccc(Cl)cc3)Nc3ccncc3N12 (configuration not stated) | > 10 µM (inactive) | > 10 µM (inactive) | 5.52 µM (inactive) | > 10 µM (inactive) | > 10 µM (inactive) | > 10 µM (inactive) | > 10 µM (inactive) | > 10 µM (inactive) | > 10 µM (inactive) | > 10 µM (inactive) | > 10 µM (inactive) | > 10 µM (inactive) | > 10 µM (inactive) | > 10 µM (inactive) | > 10 µM (inactive) | > 10 µM (inactive) |  |  | 
2 | CC(C)(C)n1c(=O)n(C(=O)C(Cl)(Cl)Cl)n(C(=O)C(Cl)(Cl)Cl)c1=O | > 100 µM (inactive) | > 100 µM (inactive) | > 100 µM (inactive) | > 100 µM (inactive) | > 100 µM (inactive) | > 100 µM (inactive) | > 100 µM (inactive) | > 100 µM (inactive) | > 100 µM (inactive) | > 100 µM (inactive) | > 100 µM (inactive) | > 100 µM (inactive) | > 100 µM (inactive) | > 100 µM (inactive) | > 100 µM (inactive) | > 100 µM (inactive) | > 100 µM (inactive) | > 100 µM (inactive) | 
3 | COc1ccc(-c2cc(-c3cc(F)c(Cl)cc3Cl)on2)cc1OC | 67.1 µM (inactive) | 37.2 µM (inactive) | 44.6 µM (inactive) | 5.82 µM (inactive) | 22.5 µM (inactive) | 1.16 µM (inactive) | 34 µM (inactive) | 14.3 µM (inactive) | 29.9 µM (inactive) | 4.61 µM (inactive) | 32.4 µM (inactive) | 4.48 µM (inactive) | 11.4 µM (inactive) | 30.1 µM (inactive) | 13.3 µM (inactive) | 11.8 µM (inactive) | 15.6 µM (inactive) | 34.7 µM (inactive) | 
4 | O=S(=O)(NC1CCCCC1)c1ccc2c(c1)OCCOCCOCCOCCO2 | > 100 µM (inactive) | > 100 µM (inactive) | > 100 µM (inactive) | > 100 µM (inactive) | > 100 µM (inactive) | > 100 µM (inactive) | > 100 µM (inactive) | > 100 µM (inactive) | > 100 µM (inactive) | > 100 µM (inactive) | > 100 µM (inactive) | > 100 µM (inactive) |  |  | > 100 µM (inactive) |  | > 100 µM (inactive) | > 100 µM (inactive) | > 100 µM (inactive)
5 | COc1cc(C2SCC(=O)N2c2ccc(NC(=O)c3ccc(N4C(=O)CSC4c4cc(OC)c(OC)c(OC)c4)cc3)cc2)cc(OC)c1OC (configuration not stated) | 68.1 µM (inactive) | 63.7 µM (inactive) | > 100 µM (inactive) | 34.8 µM (inactive) | 93.1 µM (inactive) |  | 81.3 µM (inactive) | 33 µM (inactive) | 49.4 µM (inactive) | 42.7 µM (inactive) | > 100 µM (inactive) |  | 25.2 µM (inactive) | 16.4 µM (inactive) |  | 37.1 µM (inactive) | 76.4 µM (inactive) | 28.9 µM (inactive) | 
6 | N#Cc1nc(C(CO)N(Cc2ccccc2)C(=O)O)oc1N (configuration not stated) |  | > 100 µM (inactive) | > 100 µM (inactive) | > 100 µM (inactive) | > 100 µM (inactive) | > 100 µM (inactive) | > 100 µM (inactive) | > 100 µM (inactive) | > 100 µM (inactive) | > 100 µM (inactive) | > 100 µM (inactive) | > 100 µM (inactive) | > 100 µM (inactive) | > 100 µM (inactive) | > 100 µM (inactive) | > 100 µM (inactive) | > 100 µM (inactive) | > 100 µM (inactive) | > 100 µM (inactive)
7 | Nc1ccc(-c2cssc2=S)cc1 | 36.3 µM (inactive) | 38.1 µM (inactive) | 44.6 µM (inactive) | 1.17 µM (inactive) | 51.9 µM (inactive) | 2.64 µM (inactive) | 42.7 µM (inactive) | 42 µM (inactive) |  | 52.8 µM (inactive) | 31.1 µM (inactive) | 18.6 µM (inactive) | 41.9 µM (inactive) | 56.2 µM (inactive) | 56.5 µM (inactive) |  | 42.1 µM (inactive) | 0.836 µM (active) | 
8 | O=C1CCC2(CC1)Cc1ccccc1C2O (configuration not stated) | > 100 µM (inactive) | > 100 µM (inactive) | > 100 µM (inactive) | > 100 µM (inactive) | > 100 µM (inactive) | > 100 µM (inactive) | > 100 µM (inactive) | > 100 µM (inactive) | > 100 µM (inactive) | > 100 µM (inactive) | > 100 µM (inactive) | > 100 µM (inactive) | > 100 µM (inactive) |  | > 100 µM (inactive) |  | > 100 µM (inactive) |  | 
